Target: T1, wild-type ferrochelatase (Mus musculus, UniProt P22315)
T1 construct: In wild-type, murine, mature ferrochelatase, five tryptophan residues; penta-histidine tag (N); made in house; host or cells: E. coli BL21(DE3)
T1 sequence (P22315 54-422): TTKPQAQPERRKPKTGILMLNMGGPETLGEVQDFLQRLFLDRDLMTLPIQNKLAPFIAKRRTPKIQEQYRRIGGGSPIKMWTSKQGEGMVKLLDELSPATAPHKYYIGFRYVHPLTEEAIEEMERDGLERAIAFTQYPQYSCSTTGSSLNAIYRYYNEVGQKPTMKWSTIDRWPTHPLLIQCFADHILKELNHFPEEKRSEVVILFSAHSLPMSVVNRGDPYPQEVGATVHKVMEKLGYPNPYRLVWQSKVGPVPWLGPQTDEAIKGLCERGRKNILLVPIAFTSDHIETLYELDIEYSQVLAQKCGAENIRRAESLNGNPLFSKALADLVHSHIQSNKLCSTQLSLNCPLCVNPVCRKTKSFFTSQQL
Experiment: Transient kinetic analysis of NMPP inhibition (stopped-flow, zinc-protoporphyrin formation)
Assay type: biochemical, murine
Description: Enzyme (0.5 μM) was reacted with protoporphyrin (5 μM) and zinc-acetate (15 μM) in the presence of various concentrations of NMPP. The pseudo first-order rate constant k was obtained from analysis of the time course (see Materials and Methods and FIG. 4) and plotted against NMPP concentration. The enzymes used in each set were: A. wild-type ferrochelatase; B. variant P255R; C. variant P255G.
In order to obtain the pseudo first-order rate constants for NMPP binding, the kinetic traces for zinc-protoporphyrin formation in the presence of various concentrations of inhibitor were fitted to equation 3. […] The data were fit to equation 1 for a two step process:
[formula] where k is the pseudo first-order rate constant for the approach to the steady-state phase, I0 is the inhibitor concentration, S0 is the initial substrate concentration,
[formula] is the apparent inhibition constant, Ki^app, and k2 and k−2 are the second step forward and reverse rate constants, respectively. […] A two kinetic step process for binding of NMPP to either wild-type ferrochelatase or P255R (i.e., a fast, initial step for NMPP binding to the enzyme, followed by a slow step, possibly related to a conformational rearrangement of the protein-inhibitor complex) is consistent with the porphyrin-triggered conformational change of the active-site pocket deduced from the analysis of the crystal structure of B. subtilis ferrochelatase with bound N-methyl mesoporphyrin in comparison with that of the unliganded protein. […] Therefore the diminished inhibition of variant P255R by NMPP (Ki^app=1 μM vs. Ki^app=3 nM for wild-type ferrochelatase) cannot be accounted for by differences in these rates.
Transient Kinetic Analysis. The kinetic steps involved in NMPP binding to ferrochelatase were assessed using stopped-flow absorption spectroscopic analysis by monitoring the enzymatic reaction in the presence of various concentrations of the inhibitor NMPP. The reactions were performed using a rapid scanning stopped-flow spectrophotometer (model RSM-1000; OLIS Inc.), equipped with a stopped-flow mixer and an observation chamber with an optical path-length of 4 mm. The dead time of the instrument is ˜2 ms. Scan spectra spanning the wavelength range of 347 to 574 nm were collected at a rate of 1000 scan/sec. The syringes containing the reaction components and the stopped-flow cell were maintained at 30° C. using an external water-bath. The concentrations of reagents loaded into each syringe were two-fold greater than the final concentrations in the observation chamber. Enzymatic activity was monitored by following the increase in absorbance at 420 nm for zinc-protoporphyrin production using Zn^2+ and protoporphyrin as substrates.
The enzyme and substrate stock solutions were diluted in 100 mM Tris-acetate, pH 8.0, containing 0.5% Tween-80. The stock solutions for substrates and inhibitor were prepared as follows: A 3 mM zinc-acetate solution was made by dissolving zinc-acetate in distilled and deionized H2O. A 200 μM protoporphyrin solution was prepared by dissolving protoporphyrin 1× in 50 mM NH4OH containing 0.5% Tween-80. A 2 mM NMPP solution was prepared by dissolving NMPP in 100 mM NH4OH containing 0.5% Tween-80. Typically, a 2 mL solution that was 1 μM in ferrochelatase and 10 μM in protoporphyrin was pre-incubated on ice for 30 min. The porphyrin-enzyme solution was titrated with NMPP. The mixture was subsequently transferred to one of the stopped-flow syringes. The other stopped-flow syringe was loaded with a reaction buffer solution of ˜2 mL that was 30 μM in zinc-acetate. The enzymatic reaction was initiated by mixing the contents from both syringes and reaction progression was monitored by following the increase in absorbance at 420 nm. The data were analyzed by fitting the observed absorbance values to equation 4: […]

second step forward rate constant k2: 6.4 s⁻¹ | second step reverse rate constant k−2: 24.5 s⁻¹ | Ki (two-step fit (equation 1), read-out: apparent inhibition constant Ki^app): 3 nM
Substance: N-methyl protoporphyrin [NMPP]
